Test results published in US4237135A, “2-(4-Ethyl-1-piperazinyl)-4-phenylquinoline, process for preparation thereof, and composition thereof” (Dainippon Pharmaceutical Co., Ltd., priority 1978, dated 1980).
Where two headings read alike, the source gives them in different places.

Key:
[1] = system: catalepsy induced by reserpine; assay: Anti-reserpine activity: antagonistic effect on catalepsy induced by reserpine; type: in vivo, male STD-ddY strain mice; settings: for ED50: Mus musculus, po, 1 h
Experimental: In the experiments, ED50 was calculated by Litchfield-Wilcoxon method. Male STD-ddY strain mice, weighing […], were used in groups of 10 mice each. […] The mice were tested for catalepsy 1 hour after the administration of test compounds. ED50 was calculated for each compound.

[2] = system: spontaneous locomotor activity; assay: Inhibitory effect on spontaneous locomotor activity; type: in vivo, male STD-ddY strain mice; settings: for ED50: Mus musculus, po, read-out: Spontan. locomotor ED50; for Inhibition of spontaneous locomotion (in words): p.o.
Experimental: (§1) Pharmacological experiments have been done on the compound of the present invention, some known and novel analogous compounds and an antidepressant on the market, as mentioned below. In the experiments, ED50 was calculated by Litchfield-Wilcoxon method.
Male mice of STD-ddY strain, weighing 20-25 g, were used in groups of 5 mice each. Each test compound was given orally to the mice in 5 different doses, and 2 hours later the spontaneous locomotor activity of each mouse was measured for 3 minutes by means of an Animex locomotor activity meter (made by Farad Electronics). ED50 was calculated for each compound. The ED50 means the dose of test compound in which the locomotor activity was reduced to 50% of that of control group receiving saline.

[3] = system: hypothermia induced by reserpine; assay: Anti-reserpine activity: antagonistic effect on hypothermia induced by reserpine; type: in vivo, male STD-ddY strain mice; settings: p.o.; for ED50: Mus musculus, po, 4 h, reserpine 5 mg/kg i.p.
Experimental: Pharmacological experiments have been done on the compound of the present invention, some known and novel analogous compounds and an antidepressant on the market, as mentioned below. In the experiments, ED50 was calculated by Litchfield-Wilcoxon method. This effect was examined according to the method of […]. 2, 725 (1963)], using male STD-ddY strain mice weighing 20-25 g. […] Rectal temperature of each mouse was measured 4 hours later with a thermister (Shibaura Electric, BMG III-130).

[4] = system: spontaneous and methamphetamine-induced locomotor activities; assay: Neuroleptics-like activity, overall (Test 2); type: in vivo, male STD-ddY strain mice; settings: overall conclusion
[5] = system: methamphetamine-induced locomotor activity; assay: Anti-methamphetamine effect (inhibitory effect on methamphetamine-induced locomotor activity); type: in vivo, male STD-ddY strain mice; settings: for ED50: Mus musculus, ip, read-out: Anti-methamphetamine ED50; for Antagonizing methamphetamine-induced locomotor activity (in words): i.p.
Experimental: as §1
Male STD-ddY strain mice, weighing 20-25 g, were used in groups of 10 mice each. Groups of mice were injected intraperitoneally with 4 mg/kg of methamphetamine, and 30 minutes later each test compound was injected intraperitoneally in 3 different doses. One hour after the injection of methamphetamine, locomotor activity of each mouse was measured for 10 minutes with an Animex locomotor activity meter.

antidepressant activity = assay: Antidepressant activity, overall (Test 1); type: in vivo, male STD-ddY strain mice; male Wistar strain rats; settings: for Antidepressant activity (in words): overall conclusion
Experimental: This effect was examined according to the method of […]. 2, 725 (1963)], using male STD-ddY strain mice weighing 20-25 g. […] Rectal temperature of each mouse was measured 4 hours later with a thermister (Shibaura Electric, BMG III-130). […] Male STD-ddY strain mice, weighing […], were used in groups of 10 mice each. […] The mice were tested for catalepsy 1 hour after the administration of test compounds. ED50 was calculated for each compound. […] Male STD-ddY strain mice, weighing 20-25 g, were used in groups of 10 mice each. […] Two hours after the tetrabenazine injection, the degree of eyelid closure (ptosis) was assessed on the basis of macroscopic scoring (0: no closure of the eyelid, 1: 1/4 closure, 2: 2/4 closure, 3: 3/4 closure and 4: complete closure), essentially according to the method of P. A. J. Janssen [Arzneim. Forsch. 15, 104 (1965)]. ED50 was calcuated for each compound. […] Male Wistar strain rats, weighing 240-260 g, which had developed mouse-killing behavior after ablation of the olfactory bulb according to the method of Z. P. Horovitz [Int. J. Neuropharmacol. 5, 405 (1966)], were used in groups of 15 animals each. […] ED50 was calculated for each compound.

[6] = system: ptosis induced by tetrabenazine; assay: Anti-tetrabenazine activity: antagonistic effect on ptosis induced by tetrabenazine; type: in vivo, male STD-ddY strain mice; settings: Mus musculus, po; tetrabenazine 70 mg/kg i.p.; Table 2
Experimental: Pharmacological experiments have been done on the compound of the present invention, some known and novel analogous compounds and an antidepressant on the market, as mentioned below. In the experiments, ED50 was calculated by Litchfield-Wilcoxon method. Male STD-ddY strain mice, weighing 20-25 g, were used in groups of 10 mice each. […] Two hours after the tetrabenazine injection, the degree of eyelid closure (ptosis) was assessed on the basis of macroscopic scoring (0: no closure of the eyelid, 1: 1/4 closure, 2: 2/4 closure, 3: 3/4 closure and 4: complete closure), essentially according to the method of P. A. J. Janssen [Arzneim. Forsch. 15, 104 (1965)]. ED50 was calcuated for each compound.

[7] = system: brain 3-methoxy-4-hydroxyphenylethylene glycol sulfate (MOPEG-SO4); assay: Effect on brain monoamine metabolites: MOPEG-SO4; type: in vivo, male Wistar strain rats; settings: 100 mg/kg p.o.; for Brain MOPEG-SO4, % of control: *P<0.01
Experimental: (§2) Each test compound was given orally to the rats in a dose of 100 mg/kg and, 1, 3 and 6 hours later the rats were sacrificed. […] The concentrations of the monoamine metabolites were calculated in terms of ng/g wet brain tissue and expressed as % of the concentrations of controls receiving saline.

tremorine-induced tremor = assay: Anti-tremorine activity (antagonistic effect on tremorine-induced tremor); type: in vivo, male STD-ddY strain mice; settings: Mus musculus, po, read-out: Anti-tremorine activity ED50
Experimental: as §1
Male STD-ddY strain mice, weighing 20-25 g, were used in groups of 5 mice each. Each test compound was given orally to the mice in 5 different doses, and 2 hours later 20 mg/kg of tremorine was injected intraperitoneally. Half an hour after the injection of tremorine, each mouse was examined macroscopically for tremor severity, according to the rating scale with the scores 0, 1, 2, and 3 depending on the severity. ED50 was calculated for each compound. The ED50 means the dose of test compound in which the tremorine-induced tremor was inhibited by 50% in severity.

[8] = system: brain homovanillic acid (HVA); assay: Effect on brain monoamine metabolites: HVA; type: in vivo, male Wistar strain rats; settings: 100 mg/kg p.o.; for Brain HVA, % of control: *P<0.01
Experimental: as §2

[9] = system: brain 5-hydroxyindoleacetic acid (5-HIAA); assay: Effect on brain monoamine metabolites: 5-HIAA; type: in vivo, male Wistar strain rats; settings: 100 mg/kg p.o., *P<0.01
Experimental: as §2

[10] = system: mouse-killing behavior of olfactory bulb-ablated rats; assay: Suppressing effect on mouse-killing behavior in olfactory bulb-ablated rats; type: in vivo, male Wistar strain rats; settings: Rattus norvegicus, ip, 1 h, read-out: Suppressing effect on mouse-killing behavior of olfactory bulb-ablated rats, ED50
Experimental: as §1
Male Wistar strain rats, weighing 240-260 g, which had developed mouse-killing behavior after ablation of the olfactory bulb according to the method of Z. P. Horovitz [Int. J. Neuropharmacol. 5, 405 (1966)], were used in groups of 15 animals each. Each test compound was given intraperitoneally to the rats in 6 different doses, and 1 hours later the rats were each tested as to whether they killed a mouse or not. ED50 was calculated for each compound.

[11] = p.o., reserpine 5 mg/kg i.p., Table 1, read-out: Anti-reserpine activity ED50, catalepsy
[12] = Table 1, read-out: Anti-reserpine activity ED50, hypothermia
[13] = p.o., reserpine 5 mg/kg i.p., Table 2, read-out: Anti-reserpine ED50, catalepsy
[14] = Table 2, read-out: Anti-reserpine ED50, hypothermia

| SMILES | ED50 ([2]; 2 hours after dosing) [mg/kg] | Inhibition of spontaneous locomotion (in words) [2] | ED50 [3, 12] [mg/kg] | Neuroleptics-like activity (in words) [4] | ED50 ([5]; methamphetamine 4 mg/kg i.p.) [mg/kg] | Antagonizing methamphetamine-induced locomotor activity (in words) [5] | ED50 [1, 13] [mg/kg] | ED50 [3, 14] [mg/kg] | ED50 [6] [mg/kg] | Antidepressant activity (in words) (antidepressant activity) | also measured |
| --- | --- | --- | --- | --- | --- | --- | --- | --- | --- | --- | --- |
| CN1CCN(c2cc(-c3ccccc3)c3cc(Cl)ccc3n2)CC1.Cl.Cl [Compound 1, 6-Chloro-2-(4-methyl-1-piperazinyl)-4-phenylquinoline dihydrochloride] | > 200 | devoid of both activities | 30.8 | not seen | > 30 | devoid of both activities | – | – | – | – | ED50 [1, 11]: 20 mg/kg; Activity in antagonizing reserpine catalepsy relative to compound A ([1]; versus compound A, p.o.): 13 times less active; Activity in antagonizing reserpine hypothermia relative to compound A ([3]; versus compound A): 5 times less active |
| Clc1ccc2nc(N3CCN(c4ccccc4)CC3)cc(-c3ccccc3)c2c1 [Compound 2, 6Chloro-2-(4-phenyl-1-piperazinyl)-4-phenylquinoline] | > 200 | devoid of both activities | > 100 | not seen | > 30 | devoid of both activities | – | – | – | – | ED50 [1, 11]: > 100 mg/kg; Anti-reserpine activity (in words) (antidepressant activity; hypothermia and catalepsy, p.o.): devoid of the anit-reserpine activity |
| CN1CCN(c2cc(-c3ccccc3)c3ccccc3n2)CC1 [Compound 3, 2-(4-Methyl-1-piperazinyl)-4-phenylquinoline] | 56.4 | as potent as compound A | – | comparable to compound A | 12.9 | somewhat less potent | 4.7 | 13.9 | 10.4 | much less potent than the latter | – |
| CCCN1CCN(c2cc(-c3ccccc3)c3ccccc3n2)CC1.Cl.Cl [Compound 4, 2-(4-n-Propyl-1-piperazinyl)-4-phenylquinoline dihydrochloride] | 62.2 | as potent as compound A | – | – | 13.2 | somewhat less potent | 4.4 | 13.6 | 8.2 | inferior to compound A | – |
| CCCCN1CCN(c2cc(-c3ccccc3)c3ccccc3n2)CC1.O=C(O)/C=C\C(=O)O.O=C(O)/C=C\C(=O)O [Compound 5, 2-(4-n-Butyl-1-piperazinyl)-4-phenylquinoline dimaleate] | 50.6 | as potent as compound A | – | – | 16.4 | somewhat less potent | 6.3 | 13.7 | 29.9 | inferior to compound A | – |
| CN(C)CCCN1c2ccccc2CCc2ccccc21 [Compound 6, 5-(3-dimethylaminopropyl)-10,11-dihydro-5H-dibenz[b,f]azepine] | – | devoid of both activities | 21.5 | not seen | – | devoid of both activities | – | 21.5 | 4.9 | – | ED50 ([1]; read-out: Anti-reserpine ED50, catalepsy): 38.3 mg/kg; ED50 ([1]; read-out: Anti-reserpine activity ED50, catalepsy): 38.3 mg/kg; Brain MOPEG-SO4 concentration / noradrenaline turnover (in words) [7]: significant decrease in brain MOPEG-SO4 concentration; Brain MOPEG-SO4, % of control ([7]; 1 hour): 87 % of control; Brain MOPEG-SO4, % of control ([7]; 3 hours): 80 % of control; Brain MOPEG-SO4, % of control ([7]; 6 hours): 70 % of control; ED50 ([2]; 2 h): > 200 mg/kg; ED50 (tremorine-induced tremor): 48.3 mg/kg; Brain HVA concentration / dopamine turnover (in words) [8]: devoid of such activity; Brain HVA, % of control ([8]; 1 hour): 110 % of control; Brain HVA, % of control ([8]; 3 hours): 98 % of control; Brain 5-HIAA, % of control ([9]; 1 hour): 88 % of control; Brain 5-HIAA, % of control ([9]; 3 hours): 84 % of control; Brain 5-HIAA, % of control ([9]; 6 hours): 73 % of control; ED50 [5]: > 30 mg/kg; ED50 [10]: 5.5 mg/kg |
| CN(C)CCCN1c2ccccc2Sc2ccc(Cl)cc21 [Compound 7, 2chloro-10-(3-dimethylaminopropyl)phenothiazine] | – | – | – | – | – | – | – | – | – | – | ED50 ([2]; 2 h): 7.4 mg/kg; ED50 [5]: 1 mg/kg |
| OC(CCN1CCCCC1)(c1ccccc1)C1CC2C=CC1C2 (stereo not shown) [Compound 8, 5-norbornen-2-yl-phenyl-1-piperidinepropanol] | – | – | – | – | – | – | – | – | – | – | ED50 (tremorine-induced tremor): 11.4 mg/kg |
